According to paper PMC5577244, “CD2068 potentially mediates multidrug efflux in Clostridium difficile” (Scientific Reports, 2017):

These molecules were tested against T1, CD2068 (Clostridioides difficile, UniProt Q188D7) (assay: vanadate-sensitive ATPase stimulation, inside-out membrane vesicles, phosphate release). Conditions: not given.
T1 construct: gene CD630_20680; full coding region in pET28a (NcoI/EcoRI), C-terminal His6 tag kept; expressed in E. coli BL21(DE3) pLysS; inside-out membrane vesicles; ~60 kDa
T1 sequence (Q188D7 entry or part of it): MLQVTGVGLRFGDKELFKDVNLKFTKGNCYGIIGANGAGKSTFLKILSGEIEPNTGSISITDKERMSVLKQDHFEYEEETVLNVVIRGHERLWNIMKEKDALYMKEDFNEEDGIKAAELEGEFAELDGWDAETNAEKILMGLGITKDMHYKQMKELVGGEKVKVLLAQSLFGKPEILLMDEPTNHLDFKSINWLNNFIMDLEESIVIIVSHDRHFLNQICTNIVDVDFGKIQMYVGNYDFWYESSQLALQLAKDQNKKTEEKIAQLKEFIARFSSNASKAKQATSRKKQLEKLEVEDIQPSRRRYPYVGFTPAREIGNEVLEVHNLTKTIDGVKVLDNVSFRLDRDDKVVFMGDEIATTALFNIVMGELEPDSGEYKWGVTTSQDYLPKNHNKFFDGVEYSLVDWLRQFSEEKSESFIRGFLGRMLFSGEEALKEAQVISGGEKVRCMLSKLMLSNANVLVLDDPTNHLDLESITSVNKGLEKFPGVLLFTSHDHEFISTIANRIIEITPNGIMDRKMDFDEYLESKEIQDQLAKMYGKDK
Format: biochemical
Excerpt: vanadate-sensitive ATPase stimulation, inside-out membrane vesicles, phosphate release on CD2068
`CC1(C)S[C@@H]2[C@H](NC(=O)[C@H](N)c3ccccc3)C(=O)N2[C@H]1C(=O)O` [Ampicillin] gave an EC50 of 4.4 µM.
With `CC[C@H]1OC(=O)[C@H](C)[C@@H](O[C@H]2C[C@@](C)(OC)[C@@H](O)[C@H](C)O2)[C@H](C)[C@@H](O[C@@H]2O[C@H](C)C[C@H](N(C)C)[C@H]2O)[C@](C)(O)C[C@@H](C)/C(=N\OCOCCOC)[C@H](C)[C@@H](O)[C@]1(C)O` [Roxithromycin] the EC50 was 2.9 µM.
In the case of `Cc1onc(-c2ccccc2Cl)c1C(=O)N[C@@H]1C(=O)N2[C@@H]1SC(C)(C)[C@@H]2C(=O)O` [Cloxacillin], the EC50 is reported as 3 µM.
With `CO[C@@]1(NC(=O)Cc2cccs2)C(=O)N2C(C(=O)O)=C(COC(N)=O)CS[C@@H]21` [Cefoxitin] the EC50 was 7.6 ± 1 µM.
Work on `CN[C@H](CC(C)C)C(=O)N[C@H]1C(=O)N[C@@H](CC(N)=O)C(=O)N[C@H]2C(=O)N[C@H]3C(=O)N[C@H](C(=O)N[C@H](C(=O)O)c4cc(O)cc(O)c4-c4cc3ccc4O)[C@H](O)c3ccc(c(Cl)c3)Oc3cc2cc(c3O[C@@H]2O[C@H](CO)[C@@H](O)[C@H](O)[C@H]2O[C@H]2C[C@](C)(N)[C@H](O)[C@H](C)O2)Oc2ccc(cc2Cl)[C@H]1O` [Vancomycin] yielded an EC50 of 3.4 ± 1 µM.

Same assay, conditions: read-out: ATPase activity / SC50
`C[C@H]1COc2c(N3CCN(C)CC3)c(F)cc3c(=O)c(C(=O)O)cn1c23` [Levofloxacin] gave an EC50 of 4.5 ± 1 µM.
